From ChEMBL document CHEMBL4804286, “3-amino-4-(4-(4 (dimethylcarbamoyl) phenyl)-1,4-diazepan-1-yl) thieno [2,3-b] pyridine-2-carboxamide for use in cancer therapy and formulations comprising the same” (2020)
Several values for one entry are separate records, joined by “and”; a condition that tells them apart may be missing. Equal entries are not always repeated. Activity calls are given as the source filed them. The rule behind the calls is not given here.

Columns and labels:
[1] = biological target: Dual specificity protein kinase CLK1 (Homo sapiens) (UniProt P49759); assay: Inhibition of human CLK1 assessed as percent of control at 2000 nM by KINOMEscan assay relative to control; parameters: scale not given: the % may be the effect or the level left
[2] = test system: Phosphatidylinositol 4,5-bisphosphate 3-kinase catalytic subunit alpha isoform (Homo sapiens), P42336 [E542K]; assay: Inhibition of human PIK3CA E542K mutant assessed as percent of control at 2000 nM by KINOMEscan assay relative to control; parameters: scale not given: the % may be the effect or the level left
[3] = biological target: Ankyrin repeat and protein kinase domain-containing protein 1 (Homo sapiens) (UniProt Q8NFD2); assay: Inhibition of human ANKK1 assessed as percent of control at 2000 nM by KINOMEscan assay relative to control; parameters: scale not given: the % may be the effect or the level left
[4] = biological target: Ribosomal protein S6 kinase beta-1 (Homo sapiens) (UniProt P23443); assay: Inhibition of human S6K1 assessed as percent of control at 2000 nM by KINOMEscan assay relative to control; parameters: scale not given: the % may be the effect or the level left
[5] = biological target: Mitogen-activated protein kinase kinase kinase 5 (Homo sapiens) (UniProt Q99683); assay: Inhibition of human ASK1 assessed as percent of control at 2000 nM by KINOMEscan assay relative to control; parameters: scale not given: the % may be the effect or the level left
[6] = biological target: Cyclin-dependent kinase 7 (Homo sapiens) (UniProt P50613); assay: Inhibition of human CDK7 assessed as percent of control at 2000 nM by KINOMEscan assay relative to control; parameters: scale not given: the % may be the effect or the level left
Cyclin-dependent kinase 7 (Homo sapiens), sequence (P50613 whole entry): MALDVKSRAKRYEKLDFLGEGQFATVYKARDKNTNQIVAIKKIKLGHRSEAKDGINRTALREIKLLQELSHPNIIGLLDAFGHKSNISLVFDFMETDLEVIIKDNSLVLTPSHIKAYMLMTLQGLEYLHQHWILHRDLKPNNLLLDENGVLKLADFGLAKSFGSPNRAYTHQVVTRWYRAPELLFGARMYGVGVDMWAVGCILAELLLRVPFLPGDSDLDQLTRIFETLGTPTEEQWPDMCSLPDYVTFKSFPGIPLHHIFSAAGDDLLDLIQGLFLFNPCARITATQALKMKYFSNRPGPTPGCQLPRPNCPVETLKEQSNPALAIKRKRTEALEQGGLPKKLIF

[7] = biological target: Mitogen-activated protein kinase kinase kinase kinase 4 (Homo sapiens) (UniProt O95819); assay: Inhibition of human MAP4K4 assessed as percent of control at 2000 nM by KINOMEscan assay relative to control; parameters: scale not given: the % may be the effect or the level left
[8] = biological target: Serine/threonine-protein kinase ULK3 (Homo sapiens) (UniProt Q6PHR2); assay: Inhibition of human ULK3 assessed as percent of control at 2000 nM by KINOMEscan assay relative to control; parameters: scale not given: the % may be the effect or the level left
[9] = biological target: Serine/threonine-protein kinase PAK 4 (Homo sapiens) (UniProt O96013); assay: Inhibition of human PAK4 assessed as percent of control at 2000 nM by KINOMEscan assay relative to control; parameters: scale not given: the % may be the effect or the level left
[10] = biological target: Protein-tyrosine kinase 2-beta (Homo sapiens) (UniProt Q14289); assay: Inhibition of human PYK2 assessed as percent of control at 2000 nM by KINOMEscan assay relative to control; parameters: scale not given: the % may be the effect or the level left
[11] = biological target: Insulin receptor-related protein (Homo sapiens) (UniProt P14616); assay: Inhibition of human INSRR assessed as percent of control at 2000 nM by KINOMEscan assay relative to control; parameters: scale not given: the % may be the effect or the level left
Insulin receptor-related protein (Homo sapiens), sequence (P14616 27-742 limits assumed): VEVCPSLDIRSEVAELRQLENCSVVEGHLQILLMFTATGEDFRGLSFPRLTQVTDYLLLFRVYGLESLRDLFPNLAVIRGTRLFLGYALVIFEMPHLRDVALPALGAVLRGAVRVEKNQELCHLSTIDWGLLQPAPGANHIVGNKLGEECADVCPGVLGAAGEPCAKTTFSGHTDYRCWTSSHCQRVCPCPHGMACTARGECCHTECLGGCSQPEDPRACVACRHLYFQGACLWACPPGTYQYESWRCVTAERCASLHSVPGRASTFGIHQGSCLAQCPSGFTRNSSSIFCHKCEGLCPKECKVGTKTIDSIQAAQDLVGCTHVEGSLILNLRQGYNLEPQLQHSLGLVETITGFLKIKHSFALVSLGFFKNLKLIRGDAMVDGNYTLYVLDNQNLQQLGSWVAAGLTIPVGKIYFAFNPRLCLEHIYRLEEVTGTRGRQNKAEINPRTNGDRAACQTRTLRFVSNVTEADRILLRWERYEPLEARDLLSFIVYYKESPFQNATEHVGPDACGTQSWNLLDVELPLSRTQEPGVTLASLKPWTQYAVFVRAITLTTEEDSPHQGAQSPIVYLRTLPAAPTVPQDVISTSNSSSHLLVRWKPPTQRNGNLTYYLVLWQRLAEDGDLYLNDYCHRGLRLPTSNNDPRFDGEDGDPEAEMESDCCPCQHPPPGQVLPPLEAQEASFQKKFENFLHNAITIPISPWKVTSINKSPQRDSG
Insulin receptor-related protein (Homo sapiens), sequence (P14616 747-1297 limits assumed): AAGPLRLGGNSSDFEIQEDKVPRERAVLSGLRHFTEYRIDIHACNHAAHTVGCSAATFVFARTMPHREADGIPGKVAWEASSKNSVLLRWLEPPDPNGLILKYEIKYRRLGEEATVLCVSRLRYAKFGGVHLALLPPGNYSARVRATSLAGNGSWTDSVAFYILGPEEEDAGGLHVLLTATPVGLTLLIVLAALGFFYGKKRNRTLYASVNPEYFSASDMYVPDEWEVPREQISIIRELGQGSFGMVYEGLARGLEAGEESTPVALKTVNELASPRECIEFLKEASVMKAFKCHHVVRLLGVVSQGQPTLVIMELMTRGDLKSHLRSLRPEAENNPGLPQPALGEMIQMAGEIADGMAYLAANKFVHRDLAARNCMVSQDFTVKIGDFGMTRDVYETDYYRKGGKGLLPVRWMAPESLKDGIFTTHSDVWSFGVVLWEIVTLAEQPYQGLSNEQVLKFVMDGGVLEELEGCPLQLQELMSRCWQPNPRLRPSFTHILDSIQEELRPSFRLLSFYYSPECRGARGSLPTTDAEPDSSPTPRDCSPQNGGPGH

[12] = biological target: Serine/threonine-protein kinase/endoribonuclease IRE1 (Homo sapiens) (UniProt O75460); assay: Inhibition of human ERN1 assessed as percent of control at 2000 nM by KINOMEscan assay relative to control; parameters: scale not given: the % may be the effect or the level left
[13] = biological target: BDNF/NT-3 growth factors receptor (Homo sapiens) (UniProt Q16620); assay: Inhibition of human TRKB assessed as percent of control at 2000 nM by KINOMEscan assay relative to control; parameters: scale not given: the % may be the effect or the level left
[14] = biological target: Serine/threonine-protein kinase ULK2 (Homo sapiens) (UniProt Q8IYT8); assay: Inhibition of human ULK2 assessed as percent of control at 2000 nM by KINOMEscan assay relative to control; parameters: scale not given: the % may be the effect or the level left
[15] = biological target: Calcium/calmodulin-dependent protein kinase type II subunit alpha (Homo sapiens) (UniProt Q9UQM7); assay: Inhibition of human CAMK2A assessed as percent of control at 2000 nM by KINOMEscan assay relative to control; parameters: scale not given: the % may be the effect or the level left
[16] = biological target: RAC-gamma serine/threonine-protein kinase (Homo sapiens) (UniProt Q9Y243); assay: Inhibition of human AKT3 assessed as percent of control at 2000 nM by KINOMEscan assay relative to control; parameters: scale not given: the % may be the effect or the level left
[17] = test system: Receptor-type tyrosine-protein kinase FLT3 (Homo sapiens), P36888 [UNDEFINED MUTATION]; assay: Inhibition of human FLT3 ITD/D835V double mutant assessed as percent of control at 2000 nM by KINOMEscan assay relative to control; parameters: scale not given: the % may be the effect or the level left; conditions: INHIBITOR
Receptor-type tyrosine-protein kinase FLT3 (Homo sapiens), P36888 [UNDEFINED MUTATION], sequence (P36888 whole entry, looked up, stated change not applied): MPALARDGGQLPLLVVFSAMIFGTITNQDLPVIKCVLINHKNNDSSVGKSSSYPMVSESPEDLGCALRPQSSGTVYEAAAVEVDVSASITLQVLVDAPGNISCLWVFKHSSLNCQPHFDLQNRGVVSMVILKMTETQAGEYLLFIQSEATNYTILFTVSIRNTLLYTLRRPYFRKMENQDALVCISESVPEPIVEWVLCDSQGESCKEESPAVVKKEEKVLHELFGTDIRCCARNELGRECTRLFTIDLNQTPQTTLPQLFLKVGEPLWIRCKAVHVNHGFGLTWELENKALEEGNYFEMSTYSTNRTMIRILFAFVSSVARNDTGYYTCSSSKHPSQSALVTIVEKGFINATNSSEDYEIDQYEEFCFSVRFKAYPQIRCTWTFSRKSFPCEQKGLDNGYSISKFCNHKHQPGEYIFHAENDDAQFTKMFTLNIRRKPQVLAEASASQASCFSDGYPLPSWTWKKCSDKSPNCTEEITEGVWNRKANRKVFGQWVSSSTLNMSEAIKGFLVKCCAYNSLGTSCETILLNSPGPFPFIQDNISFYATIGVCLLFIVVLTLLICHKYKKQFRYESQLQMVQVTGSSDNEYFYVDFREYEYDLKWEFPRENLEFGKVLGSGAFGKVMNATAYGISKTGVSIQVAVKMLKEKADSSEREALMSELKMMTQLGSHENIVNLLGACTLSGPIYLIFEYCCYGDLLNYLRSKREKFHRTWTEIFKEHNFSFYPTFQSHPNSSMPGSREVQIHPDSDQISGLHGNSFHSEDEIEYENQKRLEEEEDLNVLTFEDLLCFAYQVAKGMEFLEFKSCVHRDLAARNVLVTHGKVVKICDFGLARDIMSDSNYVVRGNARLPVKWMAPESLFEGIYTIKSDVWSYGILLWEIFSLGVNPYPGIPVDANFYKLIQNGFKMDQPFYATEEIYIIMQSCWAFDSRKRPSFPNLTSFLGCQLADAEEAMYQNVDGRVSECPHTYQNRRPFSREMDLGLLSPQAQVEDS

[18] = biological target: SRSF protein kinase 2 (Homo sapiens) (UniProt P78362); assay: Inhibition of human SRPK2 assessed as percent of control at 2000 nM by KINOMEscan assay relative to control; parameters: scale not given: the % may be the effect or the level left
[19] = biological target: Serine/threonine-protein kinase PAK 3 (Homo sapiens) (UniProt O75914); assay: Inhibition of human PAK3 assessed as percent of control at 2000 nM by KINOMEscan assay relative to control; parameters: scale not given: the % may be the effect or the level left
[20] = biological target: Testis-specific serine/threonine-protein kinase 3 (Homo sapiens) (UniProt Q96PN8); assay: Inhibition of human TSSK3 assessed as percent of control at 2000 nM by KINOMEscan assay relative to control; parameters: scale not given: the % may be the effect or the level left
Testis-specific serine/threonine-protein kinase 3 (Homo sapiens), sequence (Q96PN8 whole entry): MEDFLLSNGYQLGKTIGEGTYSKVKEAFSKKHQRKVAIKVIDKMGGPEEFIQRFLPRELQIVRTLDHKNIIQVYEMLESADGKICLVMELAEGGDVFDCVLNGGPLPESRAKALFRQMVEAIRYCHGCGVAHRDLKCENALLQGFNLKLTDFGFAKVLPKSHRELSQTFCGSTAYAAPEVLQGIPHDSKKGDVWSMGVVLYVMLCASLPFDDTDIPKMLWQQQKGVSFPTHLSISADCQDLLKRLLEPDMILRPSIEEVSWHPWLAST

[21] = biological target: Serine/threonine-protein kinase Chk2 (Homo sapiens) (UniProt O96017); assay: Inhibition of human CHEK2 assessed as percent of control at 2000 nM by KINOMEscan assay relative to control; parameters: scale not given: the % may be the effect or the level left
[22] = biological target: Ribosomal protein S6 kinase alpha-1 (Homo sapiens) (UniProt Q15418); assay: Inhibition of human N-terminal RSK1 kinase domain 1 assessed as percent of control at 2000 nM by KINOMEscan assay relative to control; parameters: scale not given: the % may be the effect or the level left
[23] = biological target: Serine/threonine-protein kinase Nek7 (Homo sapiens) (UniProt Q8TDX7); assay: Inhibition of human NEK7 assessed as percent of control at 2000 nM by KINOMEscan assay relative to control; parameters: scale not given: the % may be the effect or the level left
Serine/threonine-protein kinase Nek7 (Homo sapiens), sequence (Q8TDX7 whole entry, looked up): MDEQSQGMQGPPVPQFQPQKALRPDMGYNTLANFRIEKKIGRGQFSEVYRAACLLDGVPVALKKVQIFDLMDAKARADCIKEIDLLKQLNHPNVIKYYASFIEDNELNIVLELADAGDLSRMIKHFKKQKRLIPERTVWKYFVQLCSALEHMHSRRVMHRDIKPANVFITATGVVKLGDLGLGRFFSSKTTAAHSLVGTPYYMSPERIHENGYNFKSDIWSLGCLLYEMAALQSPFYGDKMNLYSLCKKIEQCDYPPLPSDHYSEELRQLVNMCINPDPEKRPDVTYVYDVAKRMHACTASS

[24] = test system: Epidermal growth factor receptor (Homo sapiens), P00533 [L858R,T790M]; assay: Inhibition of human EGFR L858R/T790M double mutant assessed as percent of control at 2000 nM by KINOMEscan assay relative to control; parameters: scale not given: the % may be the effect or the level left
[25] = biological target: Serine/threonine-protein kinase Nek1 (Homo sapiens) (UniProt Q96PY6); assay: Inhibition of human NEK1 assessed as percent of control at 2000 nM by KINOMEscan assay relative to control; parameters: scale not given: the % may be the effect or the level left
[26] = biological target: Serine/threonine-protein kinase MAK (Homo sapiens) (UniProt P20794); assay: Inhibition of human MAK assessed as percent of control at 2000 nM by KINOMEscan assay relative to control; parameters: scale not given: the % may be the effect or the level left
[27] = biological target: Serine/threonine-protein kinase Chk1 (Homo sapiens) (UniProt O14757); assay: Inhibition of human CHEK1 assessed as percent of control at 2000 nM by KINOMEscan assay relative to control; parameters: scale not given: the % may be the effect or the level left
Serine/threonine-protein kinase Chk1 (Homo sapiens), sequence (O14757 whole entry): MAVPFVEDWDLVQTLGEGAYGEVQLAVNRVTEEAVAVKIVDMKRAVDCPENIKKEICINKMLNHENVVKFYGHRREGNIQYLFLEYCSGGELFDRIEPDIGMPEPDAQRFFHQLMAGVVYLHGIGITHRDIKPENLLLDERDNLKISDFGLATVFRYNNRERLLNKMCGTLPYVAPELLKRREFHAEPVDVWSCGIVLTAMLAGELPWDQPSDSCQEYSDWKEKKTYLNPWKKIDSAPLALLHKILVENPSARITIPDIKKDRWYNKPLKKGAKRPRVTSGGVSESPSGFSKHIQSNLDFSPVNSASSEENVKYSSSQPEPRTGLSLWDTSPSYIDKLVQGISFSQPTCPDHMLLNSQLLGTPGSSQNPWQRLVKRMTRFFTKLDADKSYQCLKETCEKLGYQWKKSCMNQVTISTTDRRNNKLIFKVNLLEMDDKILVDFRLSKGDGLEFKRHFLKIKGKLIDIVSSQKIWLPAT

Myc-CaP = assay: Antitumor activity against murine castration-resistant Myc-CaP cells xenografted in male FVB mouse assessed as suppression of tumor volume in presence of enzalutamide; assay type: functional
[28] = biological target: Phosphatidylinositol 4-phosphate 3-kinase C2 domain-containing subunit beta (Homo sapiens) (UniProt O00750); assay: Inhibition of human PIK3CB assessed as percent of control at 2000 nM by KINOMEscan assay relative to control; parameters: scale not given: the % may be the effect or the level left
[29] = biological target: Serine/threonine-protein kinase TAO2 (Homo sapiens) (UniProt Q9UL54); assay: Inhibition of human TAOK2 assessed as percent of control at 2000 nM by KINOMEscan assay relative to control; parameters: scale not given: the % may be the effect or the level left
Serine/threonine-protein kinase TAO2 (Homo sapiens), sequence (Q9UL54 whole entry): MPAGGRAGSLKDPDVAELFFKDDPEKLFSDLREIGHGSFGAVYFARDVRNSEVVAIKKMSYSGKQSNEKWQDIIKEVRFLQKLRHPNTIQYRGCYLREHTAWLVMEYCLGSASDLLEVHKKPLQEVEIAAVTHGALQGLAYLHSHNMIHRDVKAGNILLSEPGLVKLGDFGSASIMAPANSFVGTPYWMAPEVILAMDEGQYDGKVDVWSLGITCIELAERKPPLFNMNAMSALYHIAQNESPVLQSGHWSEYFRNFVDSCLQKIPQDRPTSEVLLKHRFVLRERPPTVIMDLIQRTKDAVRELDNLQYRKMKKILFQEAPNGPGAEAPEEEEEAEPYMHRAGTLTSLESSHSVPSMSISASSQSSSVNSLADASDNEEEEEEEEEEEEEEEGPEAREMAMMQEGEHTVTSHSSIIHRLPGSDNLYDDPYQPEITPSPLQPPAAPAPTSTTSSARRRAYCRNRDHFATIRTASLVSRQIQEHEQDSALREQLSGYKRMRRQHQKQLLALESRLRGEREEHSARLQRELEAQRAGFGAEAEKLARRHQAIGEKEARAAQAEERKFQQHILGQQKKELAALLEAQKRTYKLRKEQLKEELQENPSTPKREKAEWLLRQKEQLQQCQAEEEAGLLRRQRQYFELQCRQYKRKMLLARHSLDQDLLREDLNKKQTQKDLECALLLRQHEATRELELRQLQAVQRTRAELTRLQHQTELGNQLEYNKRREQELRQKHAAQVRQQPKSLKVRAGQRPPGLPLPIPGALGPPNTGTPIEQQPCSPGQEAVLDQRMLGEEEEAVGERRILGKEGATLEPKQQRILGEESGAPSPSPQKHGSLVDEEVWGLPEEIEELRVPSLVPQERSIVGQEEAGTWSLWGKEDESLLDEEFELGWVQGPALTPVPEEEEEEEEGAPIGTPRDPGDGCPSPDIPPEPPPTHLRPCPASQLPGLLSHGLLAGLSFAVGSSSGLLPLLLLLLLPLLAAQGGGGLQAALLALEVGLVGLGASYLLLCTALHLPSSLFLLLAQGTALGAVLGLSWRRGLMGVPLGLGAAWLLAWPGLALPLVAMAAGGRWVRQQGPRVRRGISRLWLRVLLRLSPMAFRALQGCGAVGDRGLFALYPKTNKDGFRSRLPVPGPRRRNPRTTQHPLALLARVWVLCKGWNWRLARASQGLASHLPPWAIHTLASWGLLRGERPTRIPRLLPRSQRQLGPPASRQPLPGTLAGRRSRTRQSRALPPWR

## CN(C)C(=O)c1ccc(N2CCCN(c3ccnc4sc(C(N)=O)c(N)c34)CC2)cc1
[1]
  Activity: 88% and 68%
[2]
  Activity: 92% and 74%
[3]
  Activity: 100% and 91%
[4]
  Activity: 95% and 89%
[5]
  Activity: 100%
[6]
  Activity: 100% and 78%
[7]
  Activity: 100% and 93%
[8]
  Activity: 96% and 79%
[9]
  Activity: 87% and 100%
[10]
  Activity: 97% and 84%
[11]
  Activity: 99% and 89%
[12]
  Activity: 100% and 80%
[13]
  Activity: 88% and 78%
[14]
  Activity: 90% and 83%
[15]
  Activity: 90% and 100%
[16]
  Activity: 97% and 100%
[17]
  Activity: 41% and 34%
[18]
  Activity: 93% and 100%
[19]
  Activity: 80%
[19]; INHIBITOR
  Activity: 40%
[20]
  Activity: 93% and 100%
[21]
  Activity: 92%
[22]
  Activity: 98% and 96%
[23]
  Activity: 100% and 86%
[24]
  Activity: 100% and 87%
[25]
  Activity: 80% and 96%
[26]
  Activity: 100% and 91%
[27]
  Activity: 94% and 100%
Myc-CaP
  Activity: Active
[28]
  Activity: 100% and 95%
[29]
  Activity: 92% and 93%
